Biological target: T1, HPK1 (Homo sapiens, UniProt Q92918)
T1 construct: A HiBiT tag was introduced by CRISPR on the N terminus of HPK1 in Jurkat cells; host or cells: Jurkat cells (ATCC TIB-152), monoclonal line with CRISPR knock-in of HiBiT at the endogenous HPK1 locus
Assay: HPK1 Cellular HiBit Degradation Assay
Format: cell-based
Conditions: HiBiT HPK1 Jurkat cells, 24 hrs; for DC50: concentration at which 50% of HPK1 was remaining, read-out: DC50 Category; for Dmax: Jurkat, read-out: Dmax Category
Summary of the method: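 Degraders are dosed in an 11-point series (10 uM to 0.1 nM final) onto Jurkat cells carrying an N-terminal HiBiT tag on endogenous HPK1. After 24 hrs at 37° C, lysis-based HiBiT luminescence quantifies remaining HPK1 relative to vehicle, and curve fitting gives DC50 and Dmax.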

[1] = maximum degradation vs DMSO vehicle control

T1 sequence (Q92918 whole entry): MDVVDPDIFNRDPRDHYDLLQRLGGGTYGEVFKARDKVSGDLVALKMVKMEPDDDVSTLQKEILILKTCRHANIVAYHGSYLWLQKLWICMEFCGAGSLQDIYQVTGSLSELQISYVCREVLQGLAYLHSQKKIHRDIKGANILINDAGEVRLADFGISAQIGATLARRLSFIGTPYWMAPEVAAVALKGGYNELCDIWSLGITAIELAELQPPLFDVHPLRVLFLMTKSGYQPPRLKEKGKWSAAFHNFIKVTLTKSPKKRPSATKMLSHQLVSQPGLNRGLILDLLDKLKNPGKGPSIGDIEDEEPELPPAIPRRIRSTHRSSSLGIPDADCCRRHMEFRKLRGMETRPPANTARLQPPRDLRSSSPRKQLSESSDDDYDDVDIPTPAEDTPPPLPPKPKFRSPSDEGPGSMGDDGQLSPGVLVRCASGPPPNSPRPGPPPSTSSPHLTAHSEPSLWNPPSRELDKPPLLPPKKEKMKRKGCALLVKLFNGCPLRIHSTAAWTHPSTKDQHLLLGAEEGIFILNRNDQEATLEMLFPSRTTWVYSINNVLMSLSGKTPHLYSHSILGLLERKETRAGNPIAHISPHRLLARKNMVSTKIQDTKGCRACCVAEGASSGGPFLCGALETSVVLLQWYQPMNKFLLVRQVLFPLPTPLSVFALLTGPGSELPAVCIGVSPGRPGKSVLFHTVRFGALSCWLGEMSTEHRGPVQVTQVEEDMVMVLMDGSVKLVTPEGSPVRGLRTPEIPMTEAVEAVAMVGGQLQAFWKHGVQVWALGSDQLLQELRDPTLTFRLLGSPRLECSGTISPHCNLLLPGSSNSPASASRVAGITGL

Row | Structure (SMILES) | DC50 [nM] | Dmax [1] [%] | Dmax Category [1]
1 | CC(C)n1cnc2cc(-c3ccc4c(c3)N([C@H]3C[C@@H](N5CCCCC5)C3)C(=O)C43CCN(C(=O)C4(C)CCN(C(=O)C5CCN(c6ccc7c(c6)C(=O)N(C6CCC(=O)NC6=O)C7=O)CC5)CC4)CC3)nc(NC3CC3)c21 (some centres unmarked) [Example 121, 5-{4-[4-({6-[4-(cyclopropylamino)-3-(propan-2-yl)-3H-imidazo[4,5-c]pyridin-6-yl]-2-oxo-1-[(1s,3s)-3-(piperidin-1-yl)cyclobutyl]-1,2-dihydrospiro[indole-3,4′-piperidin]-1′-yl}carbonyl)-4-methylpiperidine-1-carbonyl]piperidin-1-yl}-2-(2,6-dioxopiperidin-3-yl)-2,3-dihydro-1H-isoindole-1,3-dione] | 500 to 1000 | 50 to 70 | 
2 | CC(C)n1cnc2cc(-c3ccc4c(c3)N([C@H]3C[C@@H](N5CCCCC5)C3)C(=O)C43CCN(C(=O)[C@@H]4CCN(C(=O)[C@H]5CC[C@H](Nc6ccc(C(=O)NC7CCC(=O)NC7=O)nc6)CC5)C4)CC3)nc(Nc3ccccc3F)c21 (mixture of isomers) [Example 7, N-[(3RS)-2,6-dioxopiperidin-3-yl]-5-{1[(1R,4R)-4-[(3R)-3-[(6-{4-[(2-fluorophenyl)amino]-3-(propan-2-yl)-3H-imidazo[4,5-c]pyridin-6-yl}-2-oxo-1-[(1S,3S)-3-(piperidin-1-yl)cyclobutyl]-1,2-dihydrospiro[indole-3,4′-piperidin]-1′-yl)carbonyl]pyrrolidine-1-carbonyl]cyclohexyl]amino}pyridine-2-carboxamide] | 500 to 1000 | 50 to 70 | 
3 | CC1C(C(=O)N2CCC3(CC2)C(=O)N([C@H]2C[C@@H](N4CCCCC4)C2)c2cc(-c4cc5ncn(C(C)C)c5c(NC5CC5)n4)ccc23)CCCN1C(=O)C1CCN(c2ccc(C3CCC(=O)NC3=O)cc2)CC1 (mixture of isomers) [Example 254, (3RS)-3-(4-{4-[3-({6-[4-(cyclopropylamino)-3-(propan-2-yl)-3H-imidazo[4,5-c]pyridin-6-yl]-2-oxo-1-[(1S,3S)-3-(piperidin-1-yl)cyclobutyl]-1,2-dihydrospiro[indole-3,4′-piperidin]-1′-yl}carbonyl)-2-methylpiperidine-1-carbonyl]piperidin-1-yl}phenyl)piperidine-2,6-dione] | 100 to 500 | 50 to 70 | 
4 | CC(C)n1cnc2cc(-c3ccc4c(c3)N([C@H]3C[C@@H](N5CCCCC5)C3)C(=O)C43CCN(C(=O)C4(C)CCN(C(=O)C5CCN(c6ccc(C7CCC(=O)NC7=O)cn6)CC5)CC4)CC3)nc(N3CCCC3)c21 (stereo partly drawn) [Example 170, 3-(6-{4-[4-methyl-4-({2-oxo-6-[3-(propan-2-yl)-4-(pyrrolidin-1-yl)-3H-imidazo[4,5-c]pyridin-6-yl]-1-[(1S,3S)-3-(piperidin-1-yl)cyclobutyl]-1,2-dihydrospiro[indole-3,4′-piperidin]-1′-yl}carbonyl)piperidine-1-carbonyl]piperidin-1-yl}pyridin-3-yl)piperidine-2,6-dione] | 100 to 500 | 50 to 70 | 
5 | CC(C)n1cnc2cc(-c3ccc4c(c3)N([C@H]3C[C@@H](N5CCCCC5)C3)C(=O)C43CCN(C(=O)C4CCN(C(=O)[C@H]5CC[C@H](Oc6ccc(C7CCC(=O)NC7=O)cc6)CC5)CC4)CC3)nc(Nc3ccncc3F)c21 (mixture of isomers) [Example 61, (3RS)-3-(4-{[(1R,4R)-4-{4-[(6-{4-[(3-fluoropyridin-4-yl)amino]-3-(propan-2-yl)-3H-imidazo[4,5-c]pyridin-6-yl}-2-oxo-1-[(1S,3S)-3-(piperidin-1-yl)cyclobutyl]-1,2-dihydrospiro[indole-3,4′-piperidin]-1′-yl)carbonyl]piperidine-1-carbonyl}cyclohexyl]oxy}phenyl)piperidine-2,6-dione] | < 100 | 50 to 70 | 
6 | CC(C)n1cnc2cc(-c3ccc4c(c3)N([C@H]3C[C@@H](N5CCCCC5)C3)C(=O)C43CCN(C(=O)C4C5COCC4CN(C(=O)C4CCN(c6ccc(C7CCC(=O)NC7=O)cn6)CC4)C5)CC3)nc(NC3CC3)c21 (mixture of isomers) [Example 288, (3RS)-3-(6-{4-[9-({6-[4-(cyclopropylamino)-3-(propan-2-yl)-3H-imidazo[4,5-c]pyridin-6-yl]-2-oxo-1-[(1S,3S)-3-(piperidin-1-yl)cyclobutyl]-1,2-dihydrospiro[indole-3,4′-piperidin]-1′-yl}carbonyl)-3-oxa-7-azabicyclo[3.3.1]nonane-7-carbonyl]piperidin-1-yl}pyridin-3-yl)piperidine-2,6-dione] | < 100 | > 85 | 
7 | CC(C)n1cnc2cc(-c3ccc4c(c3)N([C@H]3C[C@@H](N5CCCCC5)C3)C(=O)C43CCN(C(=O)C4CCN(C(=O)[C@H]5CC[C@H](Cn6cc7cc(C8CCC(=O)NC8=O)ccc7n6)CC5)CC4)CC3)nc(Nc3ccccc3F)c21 (mixture of isomers) [Example 63, (3RS)-3-(2-{[(1R,4R)-4-{4-[(6-{4-[(2-fluorophenyl)amino]-3-(propan-2-yl)-3H-imidazo[4,5-c]pyridin-6-yl}-2-oxo-1-[(1S,3S)-3-(piperidin-1-yl)cyclobutyl]-1,2-dihydrospiro[indole-3,4′-piperidin]-1′-yl)carbonyl]piperidine-1-carbonyl}cyclohexyl]methyl}-2H-indazol-5-yl)piperidine-2,6-dione] | < 100 | 50 to 70 | 
8 | CC(C)n1cnc2cc(-c3ccc4c(c3)N([C@H]3C[C@@H](N5CCCCC5)C3)C(=O)C43CCN(C(=O)c4ccc(C(=O)NC5CCN(c6ccc7c(c6)C(=O)N(C6CCC(=O)NC6=O)C7=O)CC5)cc4)CC3)nc(NC3CC3)c21 (mixture of isomers) [Example 44] | 500 to 1000 |  | B (B: >70%-<85%)
9 | CC(C)n1cnc2cc(-c3ccc4c(c3)N([C@H]3C[C@@H](N5CCCCC5)C3)C(=O)C43CCN(C(=O)C45CC(CN(C(=O)C6CCN(c7ccc(C8CCC(=O)NC8=O)cn7)CC6)C4)C5)CC3)nc(NC3CC3)c21 (mixture of isomers) [Example 271, (3RS)-3-(6-{4-[1-({6-[4-(cyclopropylamino)-3-(propan-2-yl)-3H-imidazo[4,5-c]pyridin-6-yl]-2-oxo-1-[(1S,3S)-3-(piperidin-1-yl)cyclobutyl]-1,2-dihydrospiro[indole-3,4′-piperidin]-1′-yl}carbonyl)-3-azabicyclo[3.1.1]heptane-3-carbonyl]piperidin-1-yl}pyridin-3-yl)piperidine-2,6-dione] | < 100 | 70 to 85 | 
10 | CC(C)n1cnc2cc(-c3ccc4c(c3)N([C@H]3C[C@@H](N5CCCCC5)C3)C(=O)C43CCN(C(=O)[C@@H]4CCCN(C(=O)[C@H]5CC[C@H](Oc6ccc(C7CCC(=O)NC7=O)cc6)CC5)C4)CC3)nc(NC3CC3)c21 (mixture of isomers) [Example 234, (3RS)-3-(4-{[(1R,4R)-4-[(3R)-3-({6-[4-(cyclopropylamino)-3-(propan-2-yl)-3H-imidazo[4,5-c]pyridin-6-yl]-2-oxo-1-[(1S,3S)-3-(piperidin-1-yl)cyclobutyl]-1,2-dihydrospiro[indole-3,4′-piperidin]-1′-yl}carbonyl)piperidine-1-carbonyl]cyclohexyl]oxy}phenyl)piperidine-2,6-dione] | < 100 | 70 to 85 | 
11 | CC(C(=O)N1CCN(C(=O)C2CCN(c3ccc(C4CCC(=O)NC4=O)cn3)CC2)CC1)N1CCC2(CC1)C(=O)N([C@H]1C[C@@H](N3CCCCC3)C1)c1cc(-c3cc4ncn(C(C)C)c4c(NC4CC4)n3)ccc12 (stereo partly drawn) [Example 172, 3-(6-{4-[4-(2-{6-[4-(cyclopropylamino)-3-(propan-2-yl)-3H-imidazo[4,5-c]pyridin-6-yl]-2-oxo-1-[(1S,3S)-3-(piperidin-1-yl)cyclobutyl]-1,2-dihydrospiro[indole-3,4′-piperidin]-1′-yl}propanoyl)piperazine-1-carbonyl]piperidin-1-yl}pyridin-3-yl)piperidine-2,6-dione] | < 100 | > 85 | 
12 | CC(C)n1cnc2cc(-c3ccc4c(c3)N([C@H]3C[C@@H](N5CCCCC5)C3)C(=O)C43CCN(C(=O)[C@H]4C[C@@H](C)CN(C(=O)C5CCN(c6ccc(C7CCC(=O)NC7=O)cn6)CC5)C4)CC3)nc(NC3CC3)c21 (mixture of isomers) [Example 246, (3RS)-3-(6-{4-[(3S,5R)-3-({6-[4-(cyclopropylamino)-3-(propan-2-yl)-3H-imidazo[4,5-c]pyridin-6-yl]-2-oxo-1-[(1S,3S)-3-(piperidin-1-yl)cyclobutyl]-1,2-dihydrospiro[indole-3,4′-piperidin]-1′-yl}carbonyl)-5-methylpiperidine-1-carbonyl]piperidin-1-yl}pyridin-3-yl)piperidine-2,6-dione] | 100 to 500 | 50 to 70 | 
13 | CC(C)n1cnc2cc(-c3ccc4c(c3)N([C@H]3C[C@@H](N5CCCCC5)C3)C(=O)C43CCN(C(=O)C4CCN(C(=O)[C@H]5CCN(c6ccc(C7CCC(=O)NC7=O)cn6)C5)CC4)CC3)nc(Nc3ccccc3F)c21 (mixture of isomers) [Example 65, (3RS)-3-{6-[(3S)-3-{4-[(6-{4-[(2-fluorophenyl)amino]-3-(propan-2-yl)-3H-imidazo[4,5-c]pyridin-6-yl}-2-oxo-1-[(1S,3S)-3-(piperidin-1-yl)cyclobutyl]-1,2-dihydrospiro[indole-3,4′-piperidin]-1′-yl)carbonyl]piperidine-1-carbonyl}pyrrolidin-1-yl]pyridin-3-yl}piperidine-2,6-dione] | 100 to 500 | 70 to 85 | 

Source: US12091426B2, “Bifunctional degraders of hematopoietic progenitor kinase and therapeutic uses thereof” (Nurix Therapeutics, Inc., priority 2021, dated 2024)
